The results in this text go back to patent US20090326003A1, “PYRAZOLO (3, 4-B) PYRIDINE DERIVATIVES AS PDE4 INHIBITORS” (priority 2006, published 2009).

Structures are written as SMILES.

The test system of assay [1] is TNF-α production in human PBMC (peripheral blood mononuclear cells). As to the kind of experiment: Inhibition of TNF-alpha production in human PBMC (MSD technology). The note with it: inhibition of LPS-stimulated TNF-α production in human PBMC; measured and/or mean; read-out: PBMC pIC50 (MSD assay) (converted). The format is cell-based. The method, then: A 96-well plate (96 MicroWell™ Plates Nunclon™Δ-High Flange Design, Fisher Scientific UK, Bishop Meadow Road, Loughborough LE 11 5 RG, Leicestershire, UK) is prepared by initially adding to column 1 ca. 10 mM of test compound dissolved in DMSO. […] The compound is further diluted with DMSO into columns 2 to 9 by 8 successive 3fold dilutions using the Biomek® FX Laboratory Automation Workstation (Beckman Coulter, Inc., 4300 N. Harbor Boulevard, P.O. Box 3100, Fullerton, Calif. 92834-3100 USA). Column 10 is used as a DMSO negative control (High Signal, 0% response), whilst column 11, which contains 10 mM of the PDE4 inhibitor roflumilast, is used as a positive control (Low Signal, 100% response). About 1 μl (about 1 ul) of compound is transferred to the compound plate using the Biomek® FX.
PBMC cells (peripheral blood mononuclear cells) are prepared from heparinised human blood (using 1% v/v Heparin Sodium 10001 U/ml Endotoxin Free, Leo Laboratories Ltd., Cashel Road, Dublin 12. Ireland, Cat No: PL0043/0149) from normal volunteers using the Accuspin™ System-Histopaque®-1077 essentially (Sigma-Aldrich Company Ltd., The Old Brickyard New Rd, Gillingham Dorset SP8 4XT). About 20 ml of blood is overlaid onto 15 ml Histopaque® in Accuspin™ tubes. The tube is then centrifuged at about 800 g for ca. 20 minutes. The cells are collected from the interface, washed by centrifugation (ca. 1300 g, ca. 10 minutes) and resuspended in RPMI1640 medium (Low endotoxin RPMI1640 medium, Cat No: 31870-025, Invitrogen Corporation Invitrogen Ltd, 3 Fountain Drive, Inchinnan Business Park, Paisley PA4 9RF, UK) containing 10% foetal calf serum, 1% L-glutamine (Invitrogen Corporation, Cat No: 25030024) and 1% penicillin/streptomycin (Invitrogen Corporation, Cat No: 15140-122). Viable cells are counted by trypan blue staining and diluted to 1×10^6 viable cells/ml. About 50 μl (about 50 ul) of diluted cells and about 75 μl (about 75 ul) of LPS (ca. 1 ng/ml final; Sigma Cat No: L-6386) are added to the compound plate, which is then incubated at 37° C., 5% CO2, for 20 hours.
The supernatant is removed and the concentrations of TNF-α are determined by electrochemiluminescence assay using the Meso Scale Discovery (MSD) technology (Meso Scale Discovery, 9238 Gaither Road, Gaithersburg, Md. 20877, USA). See the “TNF-α (TNF-alpha) MSD Assay” described below for typical details.
Using the Biomek FX, 25 μl (25 ul) of MSD Human Serum Cytokine Assay Diluent (Meso Scale Discovery, 9238 Gaither Road, Gaithersburg, Md. 20877) is added to a 96-well High-Bind MSD plate pre-coated with anti-hTNF alpha capture antibody (MA6000) and then incubated for 24 hours at 4° C. to prevent non-specific binding. […]
For the PBMC assay, about 20 μl (ul) of diluted sulfo-TAG antibody (ca. 1 μg/ml final) is added to each well, and the plates/wells are shaken at room temperature for 2 hours. Finally, about 90 μl (ul) of MSD Read Buffer P (diluted to 2.5 times with distilled water) is added and the plates are read on a MSD Sector 6000.
Data analysis is performed with ActivityBase/XC50 module (ID Business Solutions Ltd., 2 Occam Court, Surrey Research Park, Guildford, Surrey, GU2 7QB UK). Data are normalized and expressed as % inhibition using the formula 100*((U-C1)/(C2-C1)) where U is the unknown value, C1 is the average of the high signal (0%) control wells (column 10), and C2 is the average of the low signal (100%) control wells (column 11). […]

The test system is the same in assay [2]. As to the kind of experiment: Inhibition of TNF-alpha production in human PBMC (IGEN technology). The assay is classed as cell-based. The note with it: inhibition of LPS-stimulated TNF-α production in human PBMC; measured and/or mean; read-out: PBMC pIC50 (IGEN assay) (converted). How it is done:
Test compounds are prepared as a ca. 10 mM stock solution in DMSO and a dilution series prepared in DMSO with 8 successive 3fold dilutions, either directly from the 10 mM stock solution or from a more dilute solution in DMSO. The compound is added to assay plates using a Biomek Fx liquid handling robot.
PBMC cells (peripheral blood mononuclear cells) are prepared from heparinised human blood from normal volunteers by centrifugation on histopaque at ca. 1000 g for ca. 30 minutes. The cells are collected from the interface, washed by centrifugation (ca. 1300 g, ca. 10 minutes) and resuspended in assay buffer (RPMI 1640 containing 10% foetal calf serum, 1% L-glutamine and 1% penicillin/streptomycin) at 1×10^6 cells/ml. Ca. 50 μl (ca. 50 ul) of cells are added to microtitre wells containing ca. 0.5 or ca. 1.0 μl (ul) of an appropriately diluted compound solution. Ca. […]
The supernatant is removed and the concentrations of TNF-α are determined by electrochemiluminescence assay using the IGEN technology or by ELISA (see below).
Ca. […] 50 μl (ul) of streptavidin/biotinylated anti-TNF-α antibody mix, ca. 25 μl ruthenium tagged anti-TNF-α monoclonal and ca. 100 μl PBS containing 0.1% bovine serum albumin are added to each well and the plates are sealed and shaken for ca. 2 hours before being read on an IGEN instrument.

Consider `CCn1ncc2c(NC3CCOCC3)c(CNC(=O)c3cccc(-c4cccc(C(=O)NCc5c(C)nc6c(cnn6CC)c5NC5CCOCC5)c4)c3)c(C)nc21` [Example 29, N,N′-bis{[1-ethyl-6-methyl-4-(tetrahydro-2H-pyran-4-ylamino)-1H-pyrazolo[3,4-b]pyridin-5-yl]methyl}-3,3′-biphenyldicarboxamide], for which the IC50 in assay [1] was approximately 0.794 nM.

For the molecule `CCc1nc2c(cnn2CC)c(NC2CCOCC2)c1CNC(=O)c1ccc(C(=O)NCc2c(CC)nc3c(cnn3CC)c2NC2CCOCC2)o1` [Example 35, N,N′-bis{[1,6-diethyl-4-(tetrahydro-2H-pyran-4-ylamino)-1H-pyrazolo[3,4-b]pyridin-5-yl]methyl}-2,5furandicarboxamide], the IC50 in assay [1] was approximately 0.1 nM.

Consider `CCc1nc2c(cnn2CC)c(NC2CCOCC2)c1CNC(=O)c1ccc(-c2ccc(C(=O)NCc3c(CC)nc4c(cnn4CC)c3NC3CCOCC3)cc2)cc1` [Example 23, N,N′-bis{[1,6-diethyl-4-(tetrahydro-2H-pyran-4-ylamino)-1H-pyrazolo[3,4-b]pyridin-5-yl]methyl}-4,4′-biphenyldicarboxamide], for which the IC50 in assay [1] was approximately 0.126 nM; in assay [2], approximately 0.0501 nM.
